# Reference: patent publication US20220072019A1, “INHIBITORS OF SARM1 IN COMBINATION WITH NAD+ OR A NAD+ PRECURSOR” (Disarm Therapeutics, Inc., priority 2018, published 2022)
# “Also recorded” adds a separate entry of the source.
# Test system: DRG axons
# Assay: Axon degeneration assay (axotomy of mouse DRG drop cultures)
# Assay type: cell-based
# Procedure: Mouse dorsal root ganglion neurons (DRGs) were dissected out of E12.5 CD1 mice (50 ganglia per embryo) and incubated with 0.5% Trypsin solution containing 0.02% EDTA (Gibco) at 37° C. for 15 min. The cells were then triturated by gentle pipetting and washed 3 times with DRG growth medium (Neurobasal medium (Gibco) containing 2% B27 (Invitrogen), 100 ng/ml 2.5S NGF (Harland Bioproducts), […] 5-fluoro-2′deoxyuridine (Sigma), penicillin, and streptomycin). Cells were suspended in the DRG growth medium. DRG drop cultures were created by spotting 5000 cells/well into the center of each well of a 96-well tissue culture plate coated with poly-D-Lysine (0.1 mg/ml; Sigma) and laminin ([…]; Invitrogen). Cells were allowed to adhere to the plates in a humidified tissue culture incubator (5% CO2) for 15 min and then DRG growth medium was gently added ([…]).
# To study the axonal protective effects of combining NR supplementation with a SARM1 inhibitor, 6 day-old mouse DRG drop cultures were preincubated with 100 μM NR for 24 hours before axotomy. 2 hours prior to axotomy, DRG cultures were treated with SARM1 inhibitors, in the continued presence of 100 μM NR. Potent SARM1 inhibitors were selected from two classes: isoquinoline and isothiazole SARM1 inhibitors. Isoquinoline SARM1 inhibitors tested included I-26 and I-86, while isothiazole SARM1 inhibitors tested included II-6 and II-32. The SARM1 inhibitors were tested using concentrations ranging from 0.1 to 33 μM.
# A manual axotomy was performed at time 0 by transecting the axons of the DRG neurons with a blade. After axotomy, DRG cultures remained exposed to the to SARM1 inhibitor alone, 100 μM NR alone, or the combination of SARM1 inhibitor and NR. At either 16 or 24 hours, DRG cultures were fixed in a buffered solution containing 1% PFA and sucrose and stored at 4° C. prior to imaging. Bright-field images of DRG axons and cell bodies were collected using the 20× water immersion lens of a Phenix automated confocal microscope (PerkinElmer) and quantitation of axonal damage was performed using in-house developed scripts (Acapella, PerkinElmer). The effect of NR alone in protecting distal axons from fragmentation was determined at a concentration of 100 μM. The effect of combining 100 μM NR with varying concentrations of a SARM1 inhibitor was compared to the individual protective effects of either 100 μM of NR alone or an equivalent concentration of a SARM1 inhibitor alone.
# [1] = 1.1 μM SARM1 inhibitor alone, 24 h post-axotomy
# [2] = 3.3 μM SARM1 inhibitor alone, 24 h post-axotomy
# [3] = 3.3 μM SARM1 inhibitor alone, 16 h post-axotomy
structure (smiles),measurement,setting,value
Ic1cccc2cnccc12 [I-26],axonal protection (degeneration index of DRG axons),[1],no statistically significant benefit
same,axonal protection (degeneration index of DRG axons),[2],more protection than with NR alone
same,axonal protection (degeneration index of DRG axons),"SARM1 inhibitor alone, concentration not stated in the sentence (1.1 or 3.3 μM tested), 16 h post-axotomy",modest amount of axonal protection
COc1cc(Br)c2ccncc2c1 [I-86],axonal protection (degeneration index of DRG axons),"1.1 μM SARM1 inhibitor alone, 16 h post-axotomy",NR alone provided greater protection than 1.1 μM compound I-86 alone
same,axonal protection (degeneration index of DRG axons),[1],less protection than NR alone
same,axonal protection (degeneration index of DRG axons),[3],greater protection than NR alone
N#Cc1c(O)nsc1Nc1ccccc1C(F)(F)F [II-6],axonal protection (degeneration index of DRG axons),[3],stronger protection that NR alone; also recorded: stronger protection than NR alone
same,axonal protection (degeneration index of DRG axons),[2],stronger protection than NR alone
COCCn1sc(Nc2ccccc2C(F)(F)F)c(C#N)c1=O [II-32],axonal protection (degeneration index of DRG axons),"0.11 μM SARM1 inhibitor alone, 16 h post-axotomy",NR alone provided greater protection than 0.11 μM and 0.33 μM of compound II-32 alone
same,axonal protection (degeneration index of DRG axons),"0.11 μM SARM1 inhibitor alone, 24 h post-axotomy",NR alone provided greater protection than 0.11 μM and 0.33 μM compound II-32 alone
same,axonal protection (degeneration index of DRG axons),"0.33 μM SARM1 inhibitor alone, 16 h post-axotomy",NR alone provided greater protection than 0.11 μM and 0.33 μM of compound II-32 alone
same,axonal protection (degeneration index of DRG axons),"0.33 μM SARM1 inhibitor alone, 24 h post-axotomy",NR alone provided greater protection than 0.11 μM and 0.33 μM compound II-32 alone
same,axonal protection (degeneration index of DRG axons),"1 μM SARM1 inhibitor alone, 16 h post-axotomy",greater protection than NR alone
same,axonal protection (degeneration index of DRG axons),"1 μM SARM1 inhibitor alone, 24 h post-axotomy",greater protection than NR alone
"NC(=O)c1ccc[n+]([C@@H]2O[C@H](CO)[C@@H](O)[C@H]2O)c1 [NR, 1-(β-D-ribofuranosyl)nicotinamide, reference compound]",axonal protection (degeneration index of DRG axons),"100 μM NR alone, 16 h post-axotomy",modest amount of axonal protection
same,axonal protection (degeneration index of DRG axons),"100 μM NR alone, 24 h post-axotomy",modest level of protection
